The source of these data is ChEMBL document CHEMBL3045790, “QSAR study of 5-arylidene-2,4-thiazolidinediones as aldose reductase inhibitors” (Med Chem Res, 2008).

Molecules are shown by their SMILES.

The target of the experiment is Aldo-keto reductase family 1 member B1 (Homo sapiens, UniProt P15121). Briefly: Inhibition of aldose reductase (unknown origin).
One may read the IC50 as the midpoint of a concentration-inhibition curve. The compound `O=C1NC(=O)/C(=C/c2cccc3ccccc23)S1` showed an IC50 of 8.95 µM. In other words, the single-digit micromolar range. The result for `O=C(O)CN1C(=O)S/C(=C\c2cccc(Oc3ccccc3)c2)C1=O` reads 10.7 µM.

Turning to `O=C(O)CN1C(=O)S/C(=C\c2ccc(Oc3ccccc3)cc2)C1=O`, the IC50 was 0.17 µM. This IC50 is about 63-fold lower than that of the compound before. The compound `O=C(O)CN1C(=O)S/C(=C\c2ccc(OCc3ccccc3)cc2)C1=O` had an IC50 of 10.7 µM. `O=C1NC(=O)/C(=C/c2cccc(Oc3ccccc3)c2)S1` had an IC50 of 0.28 µM. For `COC(=O)CN1C(=O)S/C(=C/c2cccc(Oc3ccccc3)c2)C1=O`, the IC50 was 0.26 µM. As for `O=C(O)CN1C(=O)S/C(=C/c2ccc(-c3ccccc3)cc2)C1=O`, the figure is 0.661 µM; as for `O=C(O)CN1C(=O)S/C(=C/c2cccc3ccccc23)C1=O`, 6.18 µM.

Consider `O=C1NC(=O)/C(=C\c2cccc(O)c2)S1`, for which the IC50 is 0.15 µM.

`O=C(O)CN1C(=O)S/C(=C/c2cccc(O)c2)C1=O` showed an IC50 of 4.17 µM.

For the compound `COC(=O)CN1C(=O)S/C(=C/c2ccc(O)cc2)C1=O`, the midpoint of inhibition, the IC50, lay at 39.1 µM. As for `O=C(O)CN1C(=O)S/C(=C/c2ccc(O)cc2)C1=O`, the figure is 0.49 µM; as for `O=C(O)/C=C/CN1C(=O)S/C(=C/c2ccc(O)cc2)C1=O`, 1.19 µM; as for `Nc1cccc(/C=C2/SC(=O)NC2=O)c1`, 6.14 µM. For `COC(=O)CN1C(=O)S/C(=C/c2cccc(N)c2)C1=O`, half-maximal inhibition (IC50) was put at 1.32 µM. On to `O=C(O)CN1C(=O)S/C(=C/c2cccc([N+](=O)[O-])c2)C1=O`, for which the IC50 was 0.13 µM.

With `O=C(O)CN1C(=O)S/C(=C/c2ccc([N+](=O)[O-])cc2)C1=O`, it took 0.82 µM to reach half-maximal inhibition (IC50). Regarding `O=C1NC(=O)/C(=C/c2ccc(O)cc2)S1`, half-maximal inhibition (IC50) was put at 20.2 µM. This IC50 is about 25-fold higher than that of the compound before.
